Experimental data from PubChem BioAssay (NCI).
Where “and” joins values, the source holds several entries; their conditions need not be identical. Equal values may be shown once.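 Growth conditions: 96-well plates. Treatment: test compound, 48 hours, 5 concentrations. Analysis: linear interpolation between bracketing concentrations; unreached endpoints set to highest concentration. GI50 marks 50% less growth. TGI marks complete inhibition of growth.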

Legend:
Test in all cases: DTP human tumour cell line panel, 48 h
[1] = tested on: HL-60(TB) leukemia
[2] = tested on: HOP-62 NSCLC
[3] = tested on: LOX IMVI melanoma
[4] = tested on: MALME-3M melanoma
[5] = tested on: MCF7 breast
[6] = tested on: SF-268 CNS
[7] = tested on: SNB-19 CNS
[8] = tested on: SR leukemia
[9] = tested on: SW-620 colon
[10] = tested on: UO-31 renal

O=C(O)CSc1cc(NS(=O)(=O)c2ccc(Br)cc2)c2ccccc2c1O
GI50 [1]: 3050 nM
TGI [1]: > 26.8 µM
GI50 [2]: 17.9 µM
TGI [2]: 31.9 µM
GI50 [3]: 3.14 µM
TGI [3]: 12.1 µM
GI50 [4]: 8.02 µM
TGI [4]: 21.1 µM
GI50 [5]: 5710 nM
TGI [5]: 19.8 µM
GI50 [6]: 8.18 µM
TGI [6]: 23.4 µM
GI50 [7]: 17.1 µM
TGI [7]: 34.2 µM
GI50 [8]: 17.8 µM
TGI [8]: > 68.1 µM
GI50 [9]: 14.4 µM
TGI [9]: 33.7 µM
GI50 [10]: 12 µM
TGI [10]: 25.2 µM

O=C1C[C@@H]2OCC=C3C[N+]4([O-])CC[C@]56c7ccccc7N1[C@H]5[C@H]2[C@H]3C[C@@H]64 (stereo partly specified)
GI50 [1]: > 100000 nM
TGI [1]: > 100 µM
GI50 [2]: > 100 µM
TGI [2]: > 100 µM
GI50 [3]: > 100 µM
TGI [3]: > 100 µM
GI50 [4]: > 100 µM
TGI [4]: > 100 µM
GI50 [5]: > 100000 nM
TGI [5]: > 100 µM
GI50 [6]: > 100 µM
TGI [6]: > 100 µM
GI50 [7]: > 100 µM
TGI [7]: > 100 µM
GI50 [8]: > 100 µM
TGI [8]: > 100 µM
GI50 [9]: > 100 µM
TGI [9]: > 100 µM
GI50 [10]: > 100 µM
TGI [10]: > 100 µM

N#C[Se]CCN1C(=O)c2ccccc2C1=O
GI50 [1]: 2230 nM
TGI [1]: 5.71 µM
GI50 [2]: 2.17 µM
TGI [2]: 6.45 µM
GI50 [3]: 1.8 µM
TGI [3]: 4.15 µM
GI50 [4]: 1.82 µM
TGI [4]: 13.4 µM
GI50 [5]: 2240 nM
TGI [5]: 13.1 µM
GI50 [6]: 1.83 µM
TGI [6]: 3.84 µM
GI50 [7]: 2.41 µM
TGI [7]: 8.66 µM
GI50 [8]: 3.21 µM
TGI [8]: 23.9 µM
GI50 [9]: 2.38 µM
TGI [9]: 5.66 µM
GI50 [10]: 2.09 µM
TGI [10]: 7.92 µM

N=C(N)SCc1ccc(Cl)c2ccccc12 (tested in a mixture with another compound)
TGI [1]: 12.6 µM and 17.8 µM
TGI [2]: 24.3 µM and 30.5 µM
TGI [3]: 33.1 µM and 36.6 µM
TGI [4]: 22.1 µM and 23.4 µM
TGI [5]: 24.7 µM and 27.9 µM
TGI [6]: 33.3 µM and 33.5 µM
TGI [7]: 28.4 µM and 31.6 µM
TGI [8]: 22.8 µM and 8.03 µM
TGI [9]: 28.5 µM and 27.6 µM
TGI [10]: 24.3 µM and 26.3 µM

COc1ccc([C@@H]2[C@@H](Oc3ccccc3)C(=O)N2c2cc(OC)c(OC)c(OC)c2)cc1F
GI50 [1]: 240 nM
TGI [1]: 0.609 µM
GI50 [2]: 0.0811 µM
TGI [2]: > 100 µM
GI50 [3]: 0.091 µM
TGI [3]: > 100 µM
GI50 [4]: > 100 µM
TGI [4]: > 100 µM
GI50 [5]: 40.9 nM
TGI [5]: > 100 µM
GI50 [6]: 0.222 µM
TGI [6]: > 100 µM
GI50 [7]: 0.175 µM
TGI [7]: > 100 µM
GI50 [8]: 0.0778 µM
TGI [8]: > 100 µM
GI50 [9]: 0.0769 µM
TGI [9]: > 100 µM
GI50 [10]: 0.562 µM
TGI [10]: > 100 µM

OCc1ccc(N2CCc3ccc(F)cc3C2)cc1Cl
GI50 [1]: 1120 nM
TGI [1]: 14.5 µM
GI50 [2]: 0.29 µM
TGI [2]: 15.5 µM
GI50 [3]: 3.73 µM
TGI [3]: 12.3 µM
GI50 [4]: 12.1 µM
TGI [4]: 26.9 µM
GI50 [5]: 137 nM
TGI [5]: 11 µM
GI50 [6]: 13.1 µM
TGI [6]: 27 µM
GI50 [7]: 12.4 µM
TGI [7]: 27 µM
GI50 [8]: 2.9 µM
TGI [8]: 17.3 µM
GI50 [9]: 0.18 µM
TGI [9]: 11.2 µM
GI50 [10]: 1.52 µM
TGI [10]: 17.3 µM

NS(=O)(=O)c1cc2c(cc1Cl)NCNS2(=O)=O
TGI [1]: > 100 µM
TGI [2]: > 100 µM
TGI [3]: > 100 µM
TGI [4]: > 100 µM
TGI [5]: > 100 µM
TGI [6]: > 100 µM
TGI [7]: > 100 µM
TGI [8]: > 100 µM
TGI [9]: > 100 µM
TGI [10]: > 100 µM

CCCCCCCCCCN=C(N)c1ccc(N2CCN(c3ccc(C(N)=NCCCCCCCCCC)cc3)CC2)cc1
GI50 [1]: 2170 nM
TGI [1]: > 50 µM
GI50 [2]: 11.3 µM
TGI [2]: 29 µM
GI50 [3]: 3.5 µM
TGI [3]: > 50 µM
GI50 [4]: 6.25 µM
TGI [4]: 17 µM
GI50 [5]: 1550 nM
TGI [5]: > 50 µM
GI50 [6]: 2.27 µM
TGI [6]: 11.1 µM
GI50 [7]: 3.02 µM
TGI [7]: 19.1 µM
GI50 [8]: > 50 µM
TGI [8]: > 50 µM
GI50 [9]: 2.65 µM
TGI [9]: > 50 µM
GI50 [10]: 22.6 µM
TGI [10]: > 50 µM

N#CC1=C(N)Oc2c(ccc3ccccc23)C1c1cc2ccccc2n2nnnc12 (stereo unspecified)
GI50 [1]: 260 nM
TGI [1]: 16.7 µM
GI50 [2]: 0.812 µM
TGI [2]: > 100 µM
GI50 [3]: 0.966 µM
TGI [3]: > 100 µM
GI50 [4]: 0.852 µM
TGI [4]: > 100 µM
GI50 [5]: 471 nM
TGI [5]: > 100 µM
GI50 [6]: 3.23 µM
TGI [6]: > 100 µM
GI50 [7]: 0.702 µM
TGI [7]: > 100 µM
GI50 [8]: 0.232 µM
TGI [8]: > 100 µM
GI50 [9]: 0.467 µM
TGI [9]: > 100 µM
GI50 [10]: 0.725 µM
TGI [10]: > 100 µM

O=C(CCN1CCOCC1)Nc1ccc(Cn2nnc3c2C(=O)c2nnn(Cc4ccc(NC(=O)CCN5CCOCC5)cc4)c2C3=O)cc1
GI50 [1]: 1140 nM
TGI [1]: 4.63 µM
GI50 [2]: 57.7 µM
TGI [2]: > 100 µM
GI50 [3]: 0.678 µM
TGI [3]: 3.37 µM
GI50 [4]: 0.247 µM
TGI [4]: 0.747 µM
GI50 [5]: 271 nM
TGI [5]: 0.978 µM
GI50 [6]: 1.28 µM
TGI [6]: > 100 µM
GI50 [7]: 1.56 µM
TGI [7]: 3.07 µM
GI50 [8]: 1.68 µM
TGI [8]: 7.62 µM
GI50 [9]: 2.58 µM
TGI [9]: > 100 µM
GI50 [10]: > 100 µM
TGI [10]: > 100 µM

O=C1NC(=NCc2cccs2)O/C1=C\c1ccc2ncccc2c1
GI50 [1]: 4640 nM
TGI [1]: 15.3 µM
GI50 [2]: 6.1 µM
TGI [2]: 18.9 µM
GI50 [3]: 5.87 µM
TGI [3]: 19.4 µM
GI50 [4]: 4.85 µM
TGI [4]: 15.3 µM
GI50 [5]: 5020 nM
TGI [5]: 23.7 µM
GI50 [6]: 5.34 µM
TGI [6]: 18.1 µM
GI50 [7]: 7.04 µM
TGI [7]: > 25 µM
GI50 [8]: 2.58 µM
TGI [8]: 10.7 µM
GI50 [9]: 4.74 µM
TGI [9]: 15.7 µM
GI50 [10]: 4.99 µM
TGI [10]: 14.1 µM

O=C1NC(=O)C2C3C=CC(C12)C1C2C(=O)NC(=O)C2C31 (stereo unspecified)
TGI [1]: 206 µM and > 1000 µM
GI50 [2]: > 644 µM
TGI [3]: > 85.7 µM and 250 µM and > 1000 µM
GI50 [4]: > 785 µM
TGI [4]: 250 µM and > 1000 µM
GI50 [5]: 537000 nM
TGI [5]: 250 µM and > 1000 µM
GI50 [6]: > 896 µM
TGI [6]: > 1000 µM
GI50 [7]: 327 µM
TGI [7]: 238 µM and > 904 µM
GI50 [8]: 68.9 µM and 108 µM
TGI [8]: 250 µM and > 871 µM
TGI [9]: > 67.4 µM and 203 µM and > 1000 µM
GI50 [10]: 596 µM
TGI [10]: 250 µM and > 1000 µM

COc1nc(N)nc2nc[nH]c12
GI50 [1]: 715000 nM and 210000 nM
TGI [1]: 500 µM and 800 µM and > 1000 µM
GI50 [2]: 576 µM and 582 µM
TGI [2]: 180 µM and 800 µM and > 923 µM
GI50 [3]: 677 µM and 489 µM
TGI [3]: 500 µM and 800 µM and > 1000 µM
GI50 [4]: > 800 µM and 665 µM
TGI [4]: 356 µM and > 800 µM and > 1000 µM
GI50 [5]: 604000 nM
TGI [5]: 500 µM and > 1000 µM
GI50 [6]: 646 µM
TGI [6]: 500 µM and 800 µM and > 1000 µM
GI50 [7]: > 1000 µM
TGI [7]: > 1000 µM
GI50 [8]: > 800 µM and 249 µM
TGI [8]: 500 µM and > 800 µM and > 849 µM
GI50 [9]: > 1000 µM
TGI [9]: > 1000 µM
GI50 [10]: 161 µM and 299 µM
TGI [10]: 485 µM and 579 µM and > 1000 µM
